According to PMC4838859, “Genetically encoded photocrosslinkers locate the high-affinity binding site of antidepressant drugs in the human serotonin transporter” (Nature Communications, 2016):

Assays:
[1] = test system: hSERT S2-binding site mutants (W103azF, Y107azF, W182azF, Y487azF, K490azF); test: Ultraviolet-induced photocrosslinking of [3H]labelled drug in HEK293T cells; details: 100 nM [3H]drug, 2 h 4 °C, UV 15 min; five S2 azF mutants
hSERT F341azF [2] = target: T1, hSERT F341azF (Homo sapiens, UniProt P31645); test: [3H]5-HT uptake assay (kinetics and uptake inhibition) in HEK293T cells; details: [3H]5-HT uptake inhibition, F341azF (S1 mutant); mean ± s.e.m.
hSERT Y95azF [3] = target: T2, hSERT Y95azF (Homo sapiens, UniProt P31645); details: 100 nM [3H]drug, 2 h 4 °C, UV 15 min, 50–100 kDa segment
WT hSERT [4] = target: T3, WT hSERT (Homo sapiens, UniProt P31645); test: Saturation binding of [3H]vortioxetine / [3H]imipramine to HEK293T membranes expressing hSERT; design: expressed in transfected cells; host or cells: HEK293T; details: [3H]ligand saturation binding
hSERT K490azF = hSERT K490azF (Homo sapiens, UniProt P31645); test: [3H]5-HT uptake assay (kinetics and uptake inhibition) in HEK293T cells; details: [3H]5-HT uptake inhibition, K490azF (S2 mutant); mean ± s.e.m.
hSERT W182azF = hSERT W182azF (Homo sapiens, UniProt P31645); test: as above; details: [3H]5-HT uptake inhibition, W182azF (S2 mutant); mean ± s.e.m.
hSERT F335azF = hSERT F335azF (Homo sapiens, UniProt P31645); test: as above; details: [3H]5-HT uptake inhibition, F335azF (S1 mutant); mean ± s.e.m.
hSERT W103azF = hSERT W103azF (Homo sapiens, UniProt P31645); test: as above; details: [3H]5-HT uptake inhibition, W103azF (S2 mutant); mean ± s.e.m.
SERT WT [5] = target: T4, SERT WT (Homo sapiens, UniProt P31645); test: as above
hSERT Y175azF = hSERT Y175azF (Homo sapiens, UniProt P31645); test: as above; details: [3H]5-HT uptake inhibition, Y175azF (S1 mutant); mean ± s.e.m.
SERT WT [6] = target: T4, SERT WT; test: [3H]5-HT saturation uptake in the presence of a fixed concentration of vortioxetine (competitive inhibition); assay type: cell-based; design: expressed in transfected cells; host or cells: HEK293T; details: control 4.21 ± 0.45
hSERT Y487azF = hSERT Y487azF (Homo sapiens, UniProt P31645); test: [3H]5-HT uptake assay (kinetics and uptake inhibition) in HEK293T cells; details: [3H]5-HT uptake inhibition, Y487azF (S2 mutant); mean ± s.e.m.
hSERT Y107azF = hSERT Y107azF (Homo sapiens, UniProt P31645); test: as above
hSERT F341azF [7] = target: T1, hSERT F341azF; test: Ultraviolet-induced photocrosslinking of [3H]labelled drug in HEK293T cells
hSERT I168azF = hSERT I168azF (Homo sapiens, UniProt P31645); test: [3H]5-HT uptake assay (kinetics and uptake inhibition) in HEK293T cells
hSERT Y95azF [8] = target: T2, hSERT Y95azF; test: as above
WT hSERT [9] = target: T3, WT hSERT; test: Ultraviolet-induced photocrosslinking of [3H]labelled drug in HEK293T cells; details: 100 nM [3H]drug, 2 h 4 °C, UV 15 min

T2 sequence (P31645 whole entry): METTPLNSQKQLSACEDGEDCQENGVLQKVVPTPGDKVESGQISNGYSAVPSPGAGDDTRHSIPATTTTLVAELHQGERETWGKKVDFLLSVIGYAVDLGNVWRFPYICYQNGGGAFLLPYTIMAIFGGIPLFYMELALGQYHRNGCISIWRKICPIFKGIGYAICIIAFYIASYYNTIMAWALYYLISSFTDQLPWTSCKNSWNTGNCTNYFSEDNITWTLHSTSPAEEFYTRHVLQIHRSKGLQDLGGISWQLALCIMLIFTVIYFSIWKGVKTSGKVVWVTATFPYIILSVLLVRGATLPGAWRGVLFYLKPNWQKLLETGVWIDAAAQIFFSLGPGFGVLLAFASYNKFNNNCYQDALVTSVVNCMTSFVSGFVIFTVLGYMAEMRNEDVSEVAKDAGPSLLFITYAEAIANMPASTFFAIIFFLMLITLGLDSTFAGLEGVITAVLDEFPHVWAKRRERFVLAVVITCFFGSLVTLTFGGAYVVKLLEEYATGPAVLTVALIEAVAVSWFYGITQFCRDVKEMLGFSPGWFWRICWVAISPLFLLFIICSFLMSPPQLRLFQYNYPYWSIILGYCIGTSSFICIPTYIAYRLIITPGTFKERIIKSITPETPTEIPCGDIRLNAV
T3 sequence (P31645 whole entry): as above
T4 sequence (P31645 whole entry): as above
T1 sequence (P31645 whole entry): as above
hSERT I168azF, sequence (P31645 whole entry): as above
hSERT Y107azF, sequence (P31645 whole entry): as above
hSERT Y487azF, sequence (P31645 whole entry): as above
hSERT Y175azF, sequence (P31645 whole entry): as above

`CN(C)CCCN1c2ccccc2CCc2ccccc21` [imipramine] was tested, and the “ultraviolet-induced crosslinking (radioactivity signal vs non-UV control)” value [1] was “did not crosslink”.

With `Cc1ccc(Sc2ccccc2N2CCNCC2)c(C)c1` [vortioxetine] the Ki (hSERT F341azF [2]) was 43 ± 5 nM, the “ultraviolet-induced crosslinking (radioactivity signal vs non-UV control)” value (hSERT Y95azF [3]) was “no signal was detected” and the Kd (WT hSERT [4]; WT hSERT C-terminally fused to 1D4 tag, mean±s.e.m.) was 6.3 ± 0.7 nM. For the same compound, the Kd (WT hSERT [4]; WT hSERT without 1D4 tag) was 6.1 ± 1.1 nM, the Ki (hSERT K490azF) was 56 ± 20 nM and the Ki (hSERT W182azF) was 74 ± 9 nM. For the same compound, the Ki (hSERT F335azF) was 54 ± 9 nM, the Ki (hSERT W103azF) was 149 ± 12 nM and the Ki (SERT WT [5]) was 202 ± 19 nM. The Ki (hSERT Y175azF) was 53 ± 6 nM, the “Vmax of 5-HT uptake in presence of inhibitor” value (SERT WT [6]; 0.75 µM vortioxetine) was 4.19 ± 0.50 pmol min-1 per well and the “Vmax of 5-HT uptake in presence of inhibitor” value (SERT WT [6]; 1 µM vortioxetine) was 4.03 ± 0.36 pmol min-1 per well. The Ki (hSERT Y487azF) was 96 ± 16 nM, the “increase in potency (more sensitive) relative to WT hSERT” value (hSERT Y107azF; Y107azF vs WT, Ki in [3H]5-HT uptake inhibition) was 5 fold and the Ki (hSERT Y107azF; [3H]5-HT uptake inhibition, Y107azF (S2 mutant), mean ± s.e.m.) was 38 ± 9 nM. For the same compound, the “ultraviolet-induced crosslinking (radioactivity signal vs non-UV control)” value [1] was “indistinguishable”, the “ultraviolet-induced crosslinking (radioactivity signal vs non-UV control)” value (hSERT F341azF [7]; 100 nM [3H]drug, 2 h 4 °C, UV 15 min, 50–100 kDa segment) was “significant ultraviolet-dependent radioactivity signal was detected” and the “displacement of crosslinking radioactivity signal by unlabelled inhibitor” value (hSERT F341azF [7]; 100 μM unlabelled inhibitor added before ultraviolet exposure) was “full displacement”. The “increase in potency (more sensitive) relative to WT hSERT” value (hSERT I168azF; I168azF vs WT, Ki in [3H]5-HT uptake inhibition) was 10 fold, the Ki (hSERT I168azF; [3H]5-HT uptake inhibition, I168azF (S1 mutant), mean ± s.e.m.) was 19 ± 3 nM and the “decrease in potency relative to WT hSERT” value (hSERT Y95azF [8]; Y95azF vs WT, Ki in [3H]5-HT uptake inhibition) was 6 fold. The Ki (hSERT Y95azF [8]; [3H]5-HT uptake inhibition, Y95azF (S1 mutant), mean ± s.e.m.) was 1240 ± 125 nM and the “ultraviolet-induced crosslinking (radioactivity signal)” value (WT hSERT [9]) was “no radioactivity signal was observed”.
